Experimental data as given in ChEMBL document CHEMBL1156042, “First stereoselective total synthesis and anticancer activity of new amide alkaloids of roots of pepper” (Bioorg Med Chem Lett, 2009).
In brackets after ≈: the same amount, converted by molar mass.

Assays:
Type in all cases: functional, cell-based
MCF7 = assay: Anticancer activity against human MCF7 cells by MTT method
HT-29 = assay: Anticancer activity against human HT-29 cells by MTT method
A549 = assay: Anticancer activity against human A549 cells by MTT method
[1] = Homo sapiens, HT-29, read-out: IC50
[2] = Homo sapiens, A549, read-out: IC50

Row | IC50 (MCF7) | IC50 (HT-29; [1]) [µg/mL] | IC50 (A549; [2]) [µg/mL] | IC50 (A549; a549) | IC50 (HT-29; ht-29) | Structure (SMILES)
1 | Not Active | 125 (≈ 464 µM) | 135 (≈ 501 µM) |  |  | CCCCC[C@@H](O)[C@H](O)/C=C/C(=O)N1CCCCC1
2 | Not Active | 181 (≈ 789 µM) |  | Not Active |  | CCC[C@@H](O)[C@H](O)/C=C/C(=O)NCC(C)C
3 | Not Active |  | 182 (≈ 676 µM) |  | Not Active | CCCCC[C@@H](O)[C@@H](O)/C=C/C(=O)N1CCCCC1
